In patent US20140378307A1, “AROMATIC PHOSPHATE ESTERS AS AGROCHEMICAL FORMULATION COMPONENT” (SYNGENTA LIMITED, priority 2011, published 2014):

What was measured:
Assay type in all cases: in vivo
[1] = system: Chenopodium album (CHEAL), Abutilon theophrasti (ABUTH), Setaria viridis (SETVI), Xanthium strumarium (XANST); assay: Glasshouse weed kill, fomesafen with tricresyl phosphate, Phosflex 362, triphenyl phosphate; settings: fomesafen 60 or 120 g/ha, 200 l/ha; Turbocharge 0.5% v/v, other adjuvants 0.2% v/v; leaf area killed; mean over two rates, three replicates, four weeds, 7, 14 and 21 days
Description: (§1) Unless otherwise stated within a specific Example, all aromatic phosphate esters employed were initially formulated as 20% w′w emulsions containing 2% w/w Gohsenol®GLO3 (a polyvinyl alcohol, Nippon Gohsei, Hull, UK) and 2% Pluronic® PE10500 (an ethylene glycol-propylene glycol block copolymer, BASF Aktiengesellschaft, Ludwighsafen, Germany) as surfactants.
The efficacy of the aromatic phosphate esters tricresyl phosphate, Phosflex®362 (2-ethylhexyl diphenyl phosphate) and triphenyl phosphate as adjuvants were tested in a glasshouse against four weed species using the herbicide fomesafen. An agrochemical composition was prepared containing 0.5% v/v of the adjuvant Turbocharge® in a track sprayer and was applied at a volume of 200 litres per hectare. The other adjuvants were tested at a rate of 0.2% v/v. Fomesafen was applied at a rate of either 60 or 120 grams per hectare on weeds which had been grown to the 1.3 or 1.4 leaf stage. […]
(§2) Each spray test was replicated three times. The efficacy of the herbicide was assessed visually and expressed as a percentage of the leaf area killed. Samples were assessed at time periods of 7, 14 and 21 days following application. […]

[2] = system: Chenopodium album (CHEAL), Abutilon theophrasti (ABUTH), Setaria viridis (SETVI), Xanthium strumarium (XANST); assay: Glasshouse weed kill, fomesafen with Phosflex 31L and comparison adjuvants
Description: as §1
The efficacy of the aromatic phosphate ester Phosflex®31L (isopropylated triphenyl phosphate) as an adjuvant for the herbicide fomesafen was tested against four weed species in the glasshouse and compared to the well-known tank mix adjuvant Turbocharge® as well as to a aromatic ester lacking the a phosphate moiety, butylene glycol benzoate. An agrochemical composition was prepared containing 0.5% v/v of the adjuvant Turbocharge with the test compound in a track sprayer, and was applied at a volume of 200 litres per hectare. Fomesafen was applied at a rate of either 60 or 120 grams per hectare. The other adjuvants were applied at a rate of 0.2% v/v. Fomesafen was applied to weeds which had been grown to the 1.3 or 1.4 leaf stage. […]
as §2

[3] = system: Polygonum convolvulus (POLCO), Brachiaria platyphylla (BRAPL), Digitaria sanguinalis (DIGSA), Amaranthus tuberculatus (AMATU); assay: Glasshouse weed kill, mesotrione with tricresyl phosphate, Phosflex 362, triphenyl phosphate; settings: mesotrione 60 or 120 g/ha, 200 l/ha; Turbocharge 0.5% v/v, other adjuvants 0.2% v/v; leaf area killed; mean over two rates, three replicates, four weeds, 7, 14 and 21 days
[4] = system: Polygonum convolvulus (POLCO), Brachiaria platyphylla (BRAPL), Digitaria sanguinalis (DIGSA), Ambrosia artemisiifolia (AMBAR); assay: Glasshouse weed kill, mesotrione with Phosflex 31L and comparison adjuvants; settings: mesotrione 30 or 60 g/ha, 200 l/ha; Tween 20 0.5% v/v, other adjuvants 0.2% v/v; mean over two rates, three replicates, four weed species, three assessment timings
Description: as §1
The efficacy of the aromatic phosphate ester Phosflex®31L (isopropylated triphenyl phosphate) as an adjuvant for the herbicide mesotrione was tested against four weed species in the glasshouse and compared to the known adjuvant Tween®20 as well as to a aromatic ester lacking the a phosphate moiety, butylene glycol benzoate. An agrochemical composition was prepared containing 0.5% v/v of the adjuvant Tween®20 with the test compound in a track sprayer, and was applied at a volume of 200 litres per hectare. The other adjuvants were tested at a rate of 0.2% v/v. Mesotrione was applied at a rate of either 30 or 60 grams per hectare to weeds which had been grown to the 1.3 or 1.4 leaf stage. The weed species were Polygonum convolvulus (POLCO), Brachiaria platyphylla (BRAPL), Digitaria sanguinalis (DIGSA) and Ambrosia artemisiifolia (AMBAR) […]

[5] = system: Chenopodium album (CHEAL), Abutilon theophrasti (ABUTH), Setaria viridis (SETVI), Digitaria sanguinalis (DIGSA); assay: Glasshouse weed kill, nicosulfuron with tricresyl phosphate, Phosflex 362, triphenyl phosphate; settings: four weed species; for efficacy as adjuvant for nicosulfuron (in words): adjuvant 0.2% v/v, conclusion from Table 7
Description: as §1
The efficacy of the aromatic phosphate esters tricresyl phosphate, Phosflex®362 (2-ethylhexyl diphenyl phosphate) and triphenyl phosphate were tested in a glasshouse against four weed species using the herbicide nicosulfuron. An agrochemical composition was prepared containing 0.5% v/v of the adjuvant Atplus® 411F in a track sprayer, and was applied at a volume of 200 litres per hectare. The other adjuvants were tested at a arte of 0.2% v/v. Nicosulfuron was applied at a rate of either 30 or 60 grams of pesticide per hectare to weeds which had been grown to the 1.3 or 1.4 leaf stage. The weed species were Chenopodium album (CHEAL), Abutilon theophrasti (ABUTH), Setaria viridis (SETVI) and Digitaria sanguinalis (DIGSA).
Each spray test was replicated three times. The efficacy of the herbicide was assessed visually and expressed as a percentage of the leaf area killed. Samples were assessed at time periods of 14 and 21 days following application. The results shown in Table 7 below are mean averages over the two rates of nicosulfuron, three replicates, four weed species and the two assessment timings, and are compared to the efficacy of nicosulfuron in the absence of adjuvant and nicosulfuron in the presence of the known tank mix adjuvant Atplus®411F.

[6] = system: Abutilon theophrasti (ABUTH), Chenopodium album (CHEAL), Digitaria sanguinalis (DIGSA), Setaria viridis (SETVI); assay: Glasshouse weed kill, nicosulfuron with Phosflex 31L and comparison adjuvants; settings: nicosulfuron 30 or 60 g/ha, 200 l/ha; Atplus 411F 0.5% v/v, other adjuvants 0.2% v/v; leaf area killed; mean over two rates, three replicates, four weed species, 14 and 21 days
Description: as §1
The efficacy of the aromatic phosphate ester Phosflex®31L (isopropylated triphenyl phosphate) as an adjuvant for the herbicide nicosulfuron was tested against four weed species in the glasshouse and compared to the well-known tank mix adjuvant Atplus®411F as well as to a aromatic ester lacking the a phosphate moiety, butylene glycol benzoate. An agrochemical composition was prepared containing 0.5% v/v of the adjuvant Atplus 411F with the test compound in a track sprayer, and was applied at a volume of 200 litres per hectare. The other adjuvants were used at a rate of 0.2% v/v. Nicosulfuron was applied at a rate of either 30 or 60 grams per hectare. Nicosulfuron was applied to weeds which had been grown to the 1.3 or 1.4 leaf stage. […]
(§3) Each spray test was replicated three times. The efficacy of the herbicide was assessed visually and expressed as a percentage of the leaf area killed. Samples were assessed at time periods of 14 and 21 days following application. […]

Septoria tritici [7] = settings: S. tritici on wheat, adjuvant 0.2% v/v, conclusion from Table 1
Septoria tritici [8] = settings: S. tritici on wheat, adjuvant 0.2% v/v, conclusion from Table 2
[9] = system: Alopecurus myosuroides (ALOMY), Avena fatua (AVEFA), Lolium perenne (LOLPE), Setaria viridis (SETVI); assay: Glasshouse weed kill, pinoxaden with Phosflex 31L and comparison adjuvants; settings: pinoxaden 7.5 or 15 g/ha, 200 l/ha; TEHP 0.5% v/v, other adjuvants 0.2% v/v; leaf area killed; mean over two rates, three replicates, four weed species, 14 and 21 days
Procedure: as §1
The efficacy of the aromatic phosphate ester Phosflex®31L (isopropylated triphenyl phosphate) as an adjuvant was tested in a glasshouse against four weed species using the herbicide pinoxaden. An agrochemical composition was prepared containing 0.2% v/v of the adjuvant in a track sprayer and was applied at a volume of 200 litres per hectare. Pinoxaden was applied at either 7.5 or 15 grams of pesticide per hectare on each of the weed species. The adjuvant TEHP was tested at a different rate from the other adjuvants, it being used at 0.5% v/v. The weed species and their growth stage at spraying were Alopecurus myosuroides (ALOMY; growth stage 13), Avena fatua (AVEFA; growth stage 12); Lolium perenne (LOLPE; growth stage 13), Setaria viridis (SETVI; growth stage 14).
as §3

[10] = system: Alopecurus myosuroides (ALOMY), Avena fatua (AVEFA), Lolium perenne (LOLPE), Setaria viridis (SETVI); assay: Glasshouse weed kill, pinoxaden with tricresyl phosphate, Phosflex 362, triphenyl phosphate; settings: pinoxaden 7.5 or 15 g/ha, 200 l/ha; TEHP 0.5% v/v, other adjuvants 0.2% v/v; leaf area killed; mean over two rates, three replicates, four weeds, 14 and 21 days
Description: as §1
The efficacy of the aromatic phosphate esters tricresyl phosphate, Phosflex®362 (2-ethylhexyl diphenyl phosphate) and triphenyl phosphate were tested in a glasshouse against four weed species using the herbicide pinoxaden. An agrochemical composition was prepared containing 0.5% v/v of the adjuvant TEHP in a track sprayer and was applied at a volume of 200 litres per hectare. The other adjuvants were tested at a rate of 0.2% v/v. Pinoxaden was applied at either 7.5 or 15 grams per hectare on each of the weed species. The weed species and their growth stage at spraying were Alopecurus myosuroides (ALOMY; growth stage 13), Avena fatua (AVEFA; growth stage 12); Lolium perenne (LOLPE; growth stage 13), Setaria viridis (SETVI; growth stage 14).
as §3

CS(=O)(=O)NC(=O)c1cc(Oc2ccc(C(F)(F)F)cc2Cl)ccc1[N+](=O)[O-] [Fomesafen, fomesafen]
Mean percentage kill, Mean across species [1]: 14.3% | Mean percentage kill, Mean across species ([2]; fomesafen 60 or 120 g/ha, 200 l/ha, Turbocharge 0.5% v/v, other adjuvants 0.2% v/v, leaf area killed, mean over two rates, three replicates, four weed species, 7, 14 and 21 days): 37.7 C %

CS(=O)(=O)c1ccc(C(=O)C2C(=O)CCCC2=O)c([N+](=O)[O-])c1 [Mesotrione, mesotrione]
Mean percentage kill, Mean across species [3]: 34.0 A % | Mean percentage kill, Mean across species [4]: 47.2 B %

COc1cc(OC)nc(NC(=O)NS(=O)(=O)c2ncccc2C(=O)N(C)C)n1 [Nicosulfuron, nicosulfuron]
Mean percentage kill, Mean across species ([5]; nicosulfuron 30 or 60 g/ha, 200 l/ha, Atplus 411F 0.5% v/v, other adjuvants 0.2% v/v, leaf area killed, mean over two rates, three replicates, 14 and 21 days): 42.5% | Mean percentage kill, Mean across species [6]: 74.9 B %

CCCCC(CC)COP(=O)(Oc1ccccc1)Oc1ccccc1 (stereo not shown) [Phosflex®362, 2-ethylhexyl diphenyl phosphate]
efficacy as adjuvant for nicosulfuron (in words) [5]: performing particularly well | efficacy as adjuvant for isopyrazam (in words) (Septoria tritici [7]): more efficacious as an adjuvant than any of the other compounds tested | efficacy as adjuvant for cyproconazole (in words) (Septoria tritici [8]): performed best as an adjuvant out of the compounds tested

CCc1cc(C)cc(CC)c1-c1c(OC(=O)C(C)(C)C)n2n(c1=O)CCOCC2 [Pinoxaden, pinoxaden]
Mean percentage kill, Mean across species [9]: 17.4 D % | Mean percentage kill, Mean across species [10]: 16.0 C %

O=C(OCCCCO)c1ccccc1 [the ester lacking the phosphate moiety, butylene glycol benzoate]
efficacy as adjuvant for fomesafen (in words) ([2]; four weed species, adjuvant 0.2% v/v, conclusion from Table 4): is not

tricresyl phosphate [tricresylphosphate]
efficacy as adjuvant for nicosulfuron (in words) [5]: performing particularly well
